Assays:
human COX-2 = molecular target: T1, human COX-2 (Homo sapiens, UniProt P35354); assay: COX-2 inhibition assay (fluorometric inhibitor screening kit); format: biochemical; conditions: for inhibition at 10 µM: 10^−5 M; for inhibition at 10 µM / inhibition at 1 µM / inhibition at 0.1 µM / inhibition at 0.01 µM / inhibition at 0.001 µM: mean of three experiments ± SD, read-out: COX-2 Inhibition (%); for inhibition at 1 µM: 10^−6 M; for inhibition at 0.1 µM: 10^−7 M; for inhibition at 0.01 µM: 10^−8 M; for inhibition at 0.001 µM: 10^−9 M; for IC50: human COX-2 assay kit, three experiments; for fold more potent than Nimesulide (COX-2 IC50): versus Nimesulide
T1 construct: purchased Biovision, Zurich, Switzerland
T1 sequence (P35354 18-604): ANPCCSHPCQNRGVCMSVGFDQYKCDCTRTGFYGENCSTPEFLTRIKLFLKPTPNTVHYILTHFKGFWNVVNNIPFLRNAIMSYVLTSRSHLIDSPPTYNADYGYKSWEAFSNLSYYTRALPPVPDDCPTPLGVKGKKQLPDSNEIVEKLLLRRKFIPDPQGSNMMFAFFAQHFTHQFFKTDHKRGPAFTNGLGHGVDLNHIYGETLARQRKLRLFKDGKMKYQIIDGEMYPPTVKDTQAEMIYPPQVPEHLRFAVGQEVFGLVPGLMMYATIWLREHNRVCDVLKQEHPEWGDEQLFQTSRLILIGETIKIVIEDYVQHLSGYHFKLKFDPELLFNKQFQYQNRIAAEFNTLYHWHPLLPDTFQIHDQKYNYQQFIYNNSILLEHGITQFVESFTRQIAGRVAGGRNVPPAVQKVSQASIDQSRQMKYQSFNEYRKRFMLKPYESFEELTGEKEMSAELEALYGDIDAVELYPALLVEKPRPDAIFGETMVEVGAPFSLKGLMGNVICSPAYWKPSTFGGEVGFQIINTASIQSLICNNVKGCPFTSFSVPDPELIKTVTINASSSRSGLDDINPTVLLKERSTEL
Source text: Fluorometric inhibitor screening kits (Biovision, Zurich, Switzerland) were utilized for the COX-2 enzyme inhibition test, as described before.

[1] = system: A498 cells (renal carcinoma); assay: MTT cytotoxicity assay, A498; conditions: for IC50: Homo sapiens, A498, 24 h, read-out: Cytotoxicity IC50 A498; for fold more cytotoxic than doxorubicin, A498: versus doxorubicin
Description: (§1) Breast carcinoma (MCF-7), renal cell carcinoma (A498), lung cancer (A549), and liver carcinoma (HepG2) cell lines, in addition to non-tumorigenic WI-38 cell lines, were collected from the American Type Culture Collection. The cells were grown in DMEM (Invitrogen/Life Technologies) containing 1% penicillin-streptomycin, 10 µg/mL of insulin (Sigma), and 10% FBS (Hyclone).
(§2) To check the possible cellular toxicity, synthesized compounds were subjected to the MTT [3-(4,5-dimethylthiazol-2-yl)-2,5-diphenyltetrazolium bromide] assay against the MCF7, A549, A498, and HepG2 cell lines. […] Later, 2.0–3.0 mL of Trypsin EDTA solution was added into the flask containing the cell layers for 5–15 min to disperse the cell layer, which was observed through an inverted microscope. By gently pipetting, aspirated cells were added into a 6.0–8.0 mL growth medium. […] An amount of 20 μL of a 5-mg/mL MTT solution was applied after a 24-h drug-treatment period, and it was incubated for 4 h. To dissolve the produced purple formazan, each well received 100 μL of dimethyl sulfoxide (DMSO).

[2] = system: MCF7 cells (breast carcinoma); assay: MTT cytotoxicity assay, MCF7; conditions: for IC50: Homo sapiens, MCF7, 24 h, read-out: Cytotoxicity IC50 MCF7; for fold more cytotoxic than doxorubicin, MCF7: versus doxorubicin
Description: as §1, §2

[3] = system: A549 cells (non-small-cell lung cancer); assay: MTT cytotoxicity assay, A549; conditions: for IC50: Homo sapiens, A549, 24 h, read-out: Cytotoxicity IC50 A549
Description: as §1, §2

[4] = system: HepG2 cells (liver carcinoma); assay: MTT cytotoxicity assay, HepG2; conditions: for IC50: Homo sapiens, HepG2, 24 h, read-out: Cytotoxicity IC50 HepG2
Description: as §1, §2

[5] = system: WI-38 cells (normal cell derived from lung tissue); assay: Cytotoxicity on non-tumorigenic WI-38 cell line; conditions: Homo sapiens, WI-38, read-out: WI-38 IC50
Description: as §1, §2

Compound	inhibition at 10 µM (human COX-2) [%]	inhibition at 1 µM (human COX-2) [%]	inhibition at 0.1 µM (human COX-2) [%]	inhibition at 0.01 µM (human COX-2) [%]	inhibition at 0.001 µM (human COX-2) [%]	IC50 (human COX-2) [nM]	IC50 [1] [nM]	fold more cytotoxic than doxorubicin, A498 [1]	IC50 [2] [nM]	fold more cytotoxic than doxorubicin, MCF7 [2]	IC50 [3] [nM]	IC50 [4] [nM]	IC50 [5] [nM]	fold more potent than Nimesulide (COX-2 IC50) (human COX-2)	melting point [°C]	fold more cytotoxic than doxorubicin, A549 ([3]; versus doxorubicin) [fold]	fold more cytotoxic than doxorubicin, HepG2 ([4]; versus doxorubicin) [fold]
COc1ccc(-c2nc(NCc3nc4ccccc4[nH]3)nc(OC)c2C#N)cc1 [Compound 3a, 2-((1H-Benzo[d]imidazol-2-yl)methylamino)-4-methoxy-6-(4-methoxyphenyl)pyrimidine-5-carbonitrile]	71.2 ± 1.13	62.5 ± 0.95	41.1 ± 0.55	32 ± 0.61	22.3 ± 0.45	230 ± 10	–	–	–	–	–	–	–	–	–	–	–
COc1ccc(-c2nc(NCc3nc4ccccc4o3)nc(OC)c2C#N)cc1 [Compound 3b, 2-(Benzo[d]oxazol-2-Ylmethylamino)-4-methoxy-6-(4-methoxyphenyl)pyrimidine-5-carbonitrile]	40.3 ± 0.62	33.3 ± 0.77	22.4 ± 0.59	77.01 ± 0.03	61.3 ± 0.96	200 ± 10	4 ± 0.15	two-fold	3 ± 0.1	three	19 ± 0.52	22 ± 0.62	94700 ± 2500	approximately 4.7 fold	> 300	–	–
COc1ccc(-c2nc(NCc3nc4ccccc4s3)nc(OC)c2C#N)cc1 [Compound 3c, 2-(Benzo[d]thiazol-2-ylmethylamino)-4-methoxy-6-(4-methoxyphenyl)pyrimidine-5-carbonitrile]	74.3 ± 1.03	57.1 ± 0.92	37.6 ± 0.6	32.5 ± 0.53	21 ± 0.4	290 ± 10	–	–	–	–	–	–	–	–	> 300	–	–
COc1ccc(-c2nc(NCc3cc4ccccc4s3)nc(OC)c2C#N)cc1 [Compound 3d, 2-(Benzo[b]thiophen-2-ylmethylamino)-4-methoxy-6-(4-methoxyphenyl)pyrimidine-5-carbonitrile]	38.3 ± 0.63	31.6 ± 0.54	21.5 ± 0.49	70.3 ± 1.11	60.4 ± 0.98	340 ± 10	–	–	–	–	–	–	–	–	> 300	–	–
COc1ccc(-c2nc(NS(=O)(=O)c3ccccc3)nc(OC)c2C#N)cc1 [Compound 5a, N-(5-Cyano-4-methoxy-6-(4-methoxyphenyl)pyrimidin-2-yl)benzenesulfonamide]	40.1 ± 0.57	30.2 ± 0.49	23.6 ± 0.51	72.2 ± 1.31	61.3 ± 0.84	260 ± 10	–	–	–	–	–	–	–	–	241 to 243	–	–
COc1ccc(-c2nc(NS(=O)(=O)c3ccc(C)cc3)nc(OC)c2C#N)cc1 [Compound 5b, N-(5-Cyano-4-methoxy-6-(4-methoxyphenyl)pyrimidin-2-yl)-4-methylbenzene-sulfonamide]	40.2 ± 0.58	36.2 ± 0.44	24.7 ± 0.31	75.2 ± 1.11	59.5 ± 1.04	180 ± 10	1 ± 0.05	7 fold	2 ± 0.05	4.5 fold	3 ± 0.07	12 ± 0.38	89600 ± 2750	~9.3 fold	283 to 285	4.3	2.1
COc1ccc(-c2nc(NS(=O)(=O)c3ccc(C(C)(C)C)cc3)nc(OC)c2C#N)cc1 [Compound 5c, 4-Tert-Butyl-N-(5-cyano-4-methoxy-6-(4-methoxyphenyl)pyrimidin-2-yl)benzene sulfonamide]	42.1 ± 0.93	28.7 ± 0.51	20.3 ± 0.52	73.2 ± 1.21	64.3 ± 1.05	260 ± 10	–	–	–	–	–	–	–	–	276 to 278	–	–
